Measurements: patent publication US4482707A, “Aminoglycoside antibiotic saccharocins” (Toyo Jozo Kabushiki Kaisha, priority 1981, dated 1984)
In brackets after ≈: the same amount, converted by molar mass. Where two headings read alike, the source gives them in different places.

Assays:
[1] = tested on: Bacillus subtilis ATCC6633; assay: MIC by the agar dilution method; format: cell-based
Excerpt: (§1) The minimum inhibitory concentration (MIC) of saccharocin and 3'-oxysaccharocin by the agar dilution method are shown in Table 1.

[2] = tested on: Citrobacter freundie GN346; assay: MIC by the agar dilution method; format: cell-based
Excerpt: as §1

[3] = tested on: Enterobacter aerogenes 055; assay: MIC by the agar dilution method; format: cell-based; details: Klebsiella aerogenes
Excerpt: as §1

[4] = tested on: Enterobacter cloacae GN336; assay: MIC by the agar dilution method; format: cell-based
Excerpt: as §1

[5] = tested on: Escherichia coli NIHJ-JC2; assay: MIC by the agar dilution method; format: cell-based; details: NIHJJC2
Excerpt: as §1

[6] = tested on: Escherichia coli W3630RGN14; assay: MIC by the agar dilution method; format: cell-based
Excerpt: as §1

[7] = tested on: Escherichia coli W3630; assay: MIC by the agar dilution method; format: cell-based
Excerpt: as §1

[8] = tested on: Klebsiella pneumoniae ATCC 10031; assay: MIC by the agar dilution method; format: cell-based; details: ATCC10031
Excerpt: as §1

[9] = tested on: Proteus morganii 0239; assay: MIC by the agar dilution method; format: cell-based; details: Morganella morganii
Excerpt: as §1

[10] = tested on: Proteus rettgeri ACR; assay: MIC by the agar dilution method; format: cell-based; details: Providencia rettgeri
Excerpt: as §1

[11] = tested on: Pseudomonas aeruginosa 1946; assay: MIC by the agar dilution method; format: cell-based
Excerpt: as §1

[12] = tested on: Pseudomonas aeruginosa 2512; assay: MIC by the agar dilution method; format: cell-based
Excerpt: as §1

[13] = tested on: Pseudomonas aeruginosa ML4561 RP4; assay: MIC by the agar dilution method; format: cell-based; details: ML4561RP4
Excerpt: as §1

[14] = tested on: Pseudomonas aeruginosa ML4561 Rm3164-1; assay: MIC by the agar dilution method; format: cell-based; details: ML4561RM31641
Excerpt: as §1

[15] = tested on: Pseudomonas aeruginosa ML4561 Rm3166; assay: MIC by the agar dilution method; format: cell-based; details: ML4561RM3166
Excerpt: as §1

[16] = tested on: Pseudomonas aeruginosa ML4561; assay: MIC by the agar dilution method; format: cell-based
Excerpt: as §1

[17] = tested on: Pseudomonas aeruginosa; assay: MIC by the agar dilution method; format: cell-based; details: Pseudomonas aeruginosa (no strain code)
Excerpt: as §1

[18] = tested on: Pseudomonas martfiriae 1850; assay: MIC by the agar dilution method; format: cell-based
Excerpt: as §1

[19] = tested on: Pseudomonas putida 1842; assay: MIC by the agar dilution method; format: cell-based
Excerpt: as §1

[20] = tested on: Salmonella enteritidis gaertner; assay: MIC by the agar dilution method; format: cell-based; details: Salmonella enterica
Excerpt: as §1

[21] = tested on: Serratia marcescens; assay: MIC by the agar dilution method; format: cell-based
Excerpt: as §1

[22] = tested on: Shigella sonnei E33; assay: MIC by the agar dilution method; format: cell-based
Excerpt: as §1

[23] = tested on: Staphylococcus aureus 0119; assay: MIC by the agar dilution method; format: cell-based
Excerpt: as §1

[24] = tested on: Staphylococcus aureus ATCC 6538P; assay: MIC by the agar dilution method; format: cell-based; details: ATCC6538P
Excerpt: as §1

[25] = tested on: Staphylococcus aureus MS27; assay: MIC by the agar dilution method; format: cell-based
Excerpt: as §1

[26] = tested on: Staphylococcus epidermidis ap-al-1; assay: MIC by the agar dilution method; format: cell-based; details: APAL1
Excerpt: as §1

[27] = tested on: Streptococcus pyogenes N.Y.5; assay: MIC by the agar dilution method; format: cell-based
Excerpt: as §1

[28] = Solubility; format: physicochemical
[29] = tested on: Saccharopolyspora sp. AC 3440; assay: Resistance on antibiotics of the producing strain; format: cell-based
[30] = acetone, benzene, ethyl acetate
[31] = 336 h, resistance of producing strain AC 3440, 37° C., 14 days, read-out: MIC
[32] = resistance of producing strain AC 3440, 37° C., 14 days

CNC1C(OC2OC(CO)C(O)C(O)C2O)OC2C(O)C(N)C(OC3C(N)CC(N)C(O)C3O)OC2C1O (stereo not drawn) [3'-oxysaccharocin]
MIC [1]: 3.1 mg/L (≈ 5.57 µM)
MIC [2]: 12.5 mg/L (≈ 22.5 µM)
MIC [3]: 12.5 mg/L (≈ 22.5 µM)
MIC [4]: 12.6 mg/L (≈ 22.6 µM)
MIC [5]: 12.5 mg/L (≈ 22.5 µM)
MIC [6]: 12.5 mg/L (≈ 22.5 µM)
MIC [7]: 3.1 mg/L (≈ 5.57 µM)
MIC [8]: 12.5 mg/L (≈ 22.5 µM)
MIC [9]: 12.5 mg/L (≈ 22.5 µM)
MIC [10]: 12.5 mg/L (≈ 22.5 µM)
MIC [11]: > 50 mg/L
MIC [12]: 50 mg/L (≈ 89.8 µM)
MIC [13]: 50 mg/L (≈ 89.8 µM)
MIC [14]: 50 mg/L (≈ 89.8 µM)
MIC [15]: 25 mg/L (≈ 44.9 µM)
MIC [16]: 50 mg/L (≈ 89.8 µM)
MIC [17]: 50 mg/L (≈ 89.8 µM)
MIC [18]: > 50 mg/L
MIC [19]: 50 mg/L (≈ 89.8 µM)
MIC [20]: 12.5 mg/L (≈ 22.5 µM)
MIC [21]: 12.5 mg/L (≈ 22.5 µM)
MIC [22]: 25 mg/L (≈ 44.9 µM)
MIC [23]: 12.5 mg/L (≈ 22.5 µM)
MIC [24]: 25 mg/L (≈ 44.9 µM)
MIC [25]: 25 mg/L (≈ 44.9 µM)
MIC [26]: 12.5 mg/L (≈ 22.5 µM)
MIC [27]: 50 mg/L (≈ 89.8 µM)
Solubility [28, 30]: insoluble
Solubility ([28]; water): soluble

NC[C@H]1O[C@H](O[C@H]2[C@H](O)[C@@H](O[C@H]3O[C@H](CO)[C@@H](O)[C@H](N)[C@H]3O)[C@H](N)C[C@@H]2N)[C@H](O)[C@@H](O)[C@@H]1O [Kanamycin]
MIC ([29]; 336 h): > 100 mg/L

CCCC(=O)OC1C(C)OC(OC2C(C)OC(OC3C(CC=O)CC(C)C(O)C=CC=CCC(C)OC(=O)CC(O)C3OC)C(O)C2N(C)C)CC1(C)O (stereo not drawn) [Leucomycin A5]
MIC [29, 31]: > 100 mg/L

NC[C@@H]1O[C@H](O[C@H]2[C@@H](O)[C@H](O[C@@H]3[C@@H](O)[C@H](N)C[C@H](N)[C@H]3O[C@H]3O[C@H](CO)[C@@H](O)[C@H](O)[C@H]3N)O[C@@H]2CO)[C@H](N)[C@@H](O)[C@@H]1O [Paromomycin]
MIC [29, 31]: 50 mg/L (≈ 81.2 µM)

CO[C@H]1/C=C/O[C@@]2(C)Oc3c(C)c(O)c4c(O)c(c(/C=N/N5CCN(C)CC5)c(O)c4c3C2=O)NC(=O)/C(C)=C\C=C\[C@H](C)[C@H](O)[C@@H](C)[C@@H](O)[C@@H](C)[C@H](OC(C)=O)[C@@H]1C [Rifampicin]
MIC ([29]; 336 h): < 12.5 mg/L

CNC1C(OC2OC(CO)C(O)C(O)C2O)OC2CC(N)C(OC3C(N)CC(N)C(O)C3O)OC2C1O (stereo not drawn) [Saccharocin]
MIC [1]: 0.8 mg/L (≈ 1.48 µM)
MIC [2]: 6.3 mg/L (≈ 11.7 µM)
MIC [3]: 6.3 mg/L (≈ 11.7 µM)
MIC [4]: 6.3 mg/L (≈ 11.7 µM)
MIC [5]: 6.3 mg/L (≈ 11.7 µM)
MIC [6]: 3.1 mg/L (≈ 5.73 µM)
MIC [7]: 1.6 mg/L (≈ 2.96 µM)
MIC [8]: 3.1 mg/L (≈ 5.73 µM)
MIC [9]: 6.3 mg/L (≈ 11.7 µM)
MIC [10]: 3.1 mg/L (≈ 5.73 µM)
MIC [11]: > 100 mg/L
MIC [12]: 50 mg/L (≈ 92.5 µM)
MIC [13]: 12.5 mg/L (≈ 23.1 µM)
MIC [14]: 25 mg/L (≈ 46.2 µM)
MIC [15]: 12.5 mg/L (≈ 23.1 µM)
MIC [16]: 25 mg/L (≈ 46.2 µM)
MIC [17]: 25 mg/L (≈ 46.2 µM)
MIC [18]: > 100 mg/L
MIC [19]: 25 mg/L (≈ 46.2 µM)
MIC [20]: 6.3 mg/L (≈ 11.7 µM)
MIC [21]: 6.3 mg/L (≈ 11.7 µM)
MIC [22]: 6.3 mg/L (≈ 11.7 µM)
MIC [23]: 6.3 mg/L (≈ 11.7 µM)
MIC [24]: 12.5 mg/L (≈ 23.1 µM)
MIC [25]: 12.5 mg/L (≈ 23.1 µM)
MIC [26]: 6.3 mg/L (≈ 11.7 µM)
MIC [27]: 25 mg/L (≈ 46.2 µM)
Solubility [28, 30]: insoluble
Solubility ([28]; water): soluble

[H]/N=C(/N)N[C@H]1[C@H](O)[C@@H](O)[C@H](O[C@@H]2O[C@@H](C)[C@](O)(C=O)[C@H]2O[C@@H]2O[C@@H](CO)[C@H](O)[C@@H](O)[C@@H]2NC)[C@@H](N/C(N)=N\[H])[C@@H]1O [Streptomycin]
MIC [29, 31]: 25 mg/L (≈ 43 µM)

NC[C@H]1O[C@H](O[C@H]2[C@H](O)[C@@H](O[C@H]3O[C@H](CO)[C@@H](O)[C@H](N)[C@H]3O)[C@H](N)C[C@@H]2N)[C@H](N)C[C@@H]1O [Tobramycin]
MIC [29, 31]: > 100 mg/L

Gentamicin
MIC [29, 32]: > 100 mg/L

Neomycin
MIC [29, 32]: 100 mg/L
